Data from patent US6790650B2, “Cacao endoproteinases and production of cocoa flavor from same” (Nestec S.A., priority 2000, dated 2004).
Values belong to the molecule of their own block, whether it stands above or below them. Square brackets hold non-standard residues; d marks the D form. Peptide text beside a SMILES is read from it. * marks the point of attachment. Sta = CC(C)C[C@H](N)[C@@H](O)CC(=O)O; Isovaleryl = CC(C)CC(=O)*

Tests used:
[1] = tested on: native aspartic endoproteinase (TcAP2), size exclusion purified pool #57-64; test: Inhibitor sensitivity of the native purified aspartic endoproteinase (bovine hemoglobin hydrolysis, OPA read-out); format: biochemical, Theobroma cacao; details: for Remaining Activity %: pH 3, 10 mg/ml bovine hemoglobin, pepstatin A 0.002 mM, 1,10 phenanthroline 2.0 mM, E-64 0.01 mM, DCI 0.1 mM, two replicates
Protocol: (§1) Aspartic endoproteinase activity was assayed at 42° C. in a 900 μl reaction medium containing 0.2M sodium citrate buffer pH3.0, 10 mg/ml bovine haemoglobin and 150 μl yeast culture supernatant. To stop the reaction aliquots (80 μl) were added to an equal volume of TCA 8% and the precipitated protein removed by centrifugation at 13000 g. 20 μl supernatant were mixed to 250 μl O-phthaldialdehyde (OPA) reagent (50 mM sodium tetraborate, 1% SDS, 5.96 mM OPA (dissolved in 1 ml methanol) and 1.43 mM β-mercaptoethanol. Activity was then determined measuring OD at 340 nm and expressed in pmole leucine produced per mg protein. For this, we use the following linear equation (OD340 nm=0.0156 pmoles+0.0088), which was determined using a standard curve with L-leucine (0 to 80 pmoles). Protein concentration was determined by Bradford assay (Biorad).
The inhibitor sensitivity of the native aspartic endoproteinase was determined in 300 μl reactions containing 200 mM sodium citrate, pH 3, 10 mg/ml bovine hemoglobin, and 5 μl of size exclusion purified pool #57-64 (2.4 μg protein/μl). The inhibitors were added to give a final concentration of 2 μM pepstatin, 2 mM 1,10 phenanthroline, 100 μM dichloroisocoumarin (DCI), 10 μM E-64. The enzyme activity was determined as described in example 5.

recombinant TcAP2 = test: Effect of inhibitors on hydrolysis of bovine haemoglobin by recombinant TcAP2; format: biochemical, Theobroma cacao; details: 2 μM pepstatin; for Effect on endoprotease activity of recombinant TcAP2: pH 3, 2 mM 1.10 phenanthroline, 100 μM DCI, 10 μM E64
Protocol: Inhibitors were added in the reaction at final concentration of 2 mM for 1.10 phenanthroline, 100 μM DCI, 10 μM E64 and 2 μM pepstatin. Activity at pH 3 without inhibitor was taken as 100% and correspond to 28.8±3.8 pmoles L-leucine produced/min/mg protein. Data are means of 3 measurements±SD;
as §1
The pepstatin insensitive activity (1.91±1.26 pmoles L-leucine/min/mg protein, 6.65%) is in the same range as that one measured for the control strain (2.26±1.26 pmoles L-leucine/min/mg protein, 7.8%). Other inhibitors such as 1.10 phenanthroline (metallo proteases), DCI (serine proteases) and E64 (cysteine proteases) have no effect on TcAP2 activity (FIG. 12).

[2] = tested on: carboxypeptidase activity; details: cited from earlier work
[3] = tested on: aspartic endoproteinase activity; details: activity optimal at pH 3.5; cited from earlier work
bovine haemoglobin = test: Aspartic endoproteinase activity of recombinant TcAP2 in yeast culture supernatant; format: biochemical
Protocol: Small patches of cells were streaked on YPD agar plates and grown overnight at 28° C. The thin layers of grown cells were used to inoculate 50 ml DMI medium in 500 ml Erlenmeyers with 4 lateral baffles. DMI medium contains per liter: KH2PO4, 10 g; MgSO4,7H2O, 2.5 g; glucose, 20 g; Trace elements solution, 5.1 ml; Vitamins solution, 17 ml; urea, 3 g. Urea was dissolved in 15 ml water and sterile filtered. The initial pH of the medium was adjusted to 5.0. The cultures were shaken at 140 rpm on a rotary shaker at 28° C. for three days. Aliquots of the cultures were centrifuged at maximum speed (3000 g) for 15 min. and the supernatant used for the determination of the aspartic endoproteinase activity.
as §1

Molecule: c1cnc2c(c1)ccc1cccnc12 [1,10 Phenanthroline, 1,10 phenanthroline]
- Remaining Activity % [1]: 86%
- Effect on endoprotease activity of recombinant TcAP2 (recombinant TcAP2): no effect

Molecule: O=c1oc(Cl)c(Cl)c2ccccc12 [DCI, dichloroisocoumarin]
- Remaining Activity % [1]: 90%
- Effect on endoprotease activity of recombinant TcAP2 (recombinant TcAP2): no effect

Molecule: CC(C)C[C@H](NC(=O)[C@H]1O[C@@H]1C(=O)O)C(=O)NCCCCN=C(N)N [E-64]
- Remaining Activity % [1]: 88%
- Effect on endoprotease activity of recombinant TcAP2 (recombinant TcAP2): no effect

Molecule: O=S(=O)(F)Cc1ccccc1 [PMSF]
- Inhibition of carboxypeptidase activity [2]: inhibited

The next lines start with results.

- Inhibition of the purified native protease activity ([1]; 2 μM pepstatin, pH 3): inhibits completely
- Remaining Activity % [1]: 0%
Molecule: CC(C)CC(=O)N[C@H](C(=O)N[C@H](C(=O)N[C@@H](CC(C)C)[C@@H](O)CC(=O)N[C@@H](C)C(=O)N[C@@H](CC(C)C)[C@@H](O)CC(=O)O)C(C)C)C(C)C [Pepstatin A] (Isovaleryl-VV[Sta]A[Sta]-OH)
- Pepstatin insensitive activity (recombinant TcAP2; medium of pCY330-33, pH 3): 1.91±1.26 pmoles L-leucine/min/mg protein
- Pepstatin insensitive activity, % of activity without inhibitor (recombinant TcAP2; activity at pH 3 without inhibitor taken as 100%): 6.65%
- Effect on endoprotease activity of recombinant TcAP2 (recombinant TcAP2): completely inhibited
- Inhibition of aspartic endoproteinase activity [3]: inhibited

- Activity at pH higher than 5 (bovine haemoglobin; pH higher than 5): slight activity
B1: TcAP2: aspartic endoproteinase from Theobroma cacao bean (clone CCN51), 514 amino acids; recombinant form secreted by Yarrowia lipolytica clone pCY330-33 (protein)
chain: MGTTIKVVVLSLFISSLLFSVVSSVSNDGLVRIGLKKMKLDPNNRLAARLDSKDGEALRAFIKKYRFRNNLGDSEETDIVALKNYMDAQYYGEIGIGTPTQKFTVIFDTGSSNLWVSSTKCYFSVACYFHEKYKASDSSTYKKDGKPASIQYGTGAISGFFSYDHVQVGDLVVKDQEFIEATKEPGLTFMVAKFDGILGLGFKEISVGDAVPVWYNMIKQGLIKEPVFSFWLNRNVDEEAGGEIVFGGVDPNHYKGKHTYVPVTQKGYWQFDMGDVLIADKPTGYCAGSCAAIADSGTSLLAGPSTVITMINHAIGATGVVSQECKAVVQQYGRTIIDLLIAEAQPQKICSQIGLCTFNGAHGVSTGIESVVDESNGKSSGVLRDAMCPACEMAVVWMQNQVRQNQTQDRILSYVNELCDRVPNPMGESAVDCGSLSSMPTISFTIGGKVFDLTPEEYILKVGEGSEAQCISGFTALDIPPPRGPLWILGDIFMGRYHTVFDFGKLRVGFAEAA
- Activity at pH 3 without inhibitor (taken as 100%) (bovine haemoglobin; FIG. 12, means of 3 measurements±SD): 28.8±3.8 pmoles L-leucine produced/min/mg protein
- Hydrolysis of bovine haemoglobin by supernatant from pCY330-33 (bovine haemoglobin; pH 3.0, 42° C., means of 3 measurements±SD (FIG. 10)): 25.8±1.45 pmoles L-leucine/min/mg protein
